Assay results taken from patent publication US20230212172A1, “ARYLACETAMIDE ANALOGS OF PIPERAZINE-[1,2,4]TRIAZOLO[4,3-B]PYRIDAZINES” (University of Vermont and State Agricultural College, priority 2020, published 2023).
pEC50: −log10 of the molar value. Like-named read-outs stand apart in the source and are kept apart here.

Assays:
[1] = tested on: C. parvum; experiment: In vitro inhibition of C. parvum development in HCT-8 cells; assay type: cell-based; details: Cryptosporidium parvum
[2] = tested on: cryptosporidiosis; details: cited from earlier work
[3] = HCT-8 cells, Table 4, read-out: EC50 for inhibition of C. parvum development in HCT-8 cells
[4] = average EC50, C. parvum in HCT-8 cells, read-out: Cp HTC-8 Avg EC50

Structure (SMILES): O=C(Cc1c(F)c(F)c(F)c(F)c1F)N1CCN(c2ccc3nncn3n2)CC1 [Example 10090, 2-(2,3,4,5,6-pentafluorophenyl)-1-(4-{[1,2,4]triazolo[4,3-b]pyridazin-6-yl}piperazin-1-yl)ethan-1-one]
- pEC50 [1, 3]: < 4.30

Structure (SMILES): O=C(Cc1ccc(Br)c(Cl)c1)N1CCN(c2ccc3nncn3n2)CC1 [Example 10238, 2-(4-bromo-3-chlorophenyl)-1-(4-{[1,2,4]triazolo[4,3-b]pyridazin-6-yl}piperazin-1-yl)ethan-1-one]
- pEC50 [1, 3]: 6.60
- pEC50 [1, 4]: 6.60

Structure (SMILES): O=C(Cc1ccc(Cl)c(Br)c1)N1CCN(c2ccc3nncn3n2)CC1 [Example 10239, 2-(3-bromo-4-chlorophenyl)-1-(4-{[1,2,4]triazolo[4,3-b]pyridazin-6-yl}piperazin-1-yl)ethan-1-one]
- pEC50 [1, 3]: 6.92
- pEC50 [1, 4]: 6.92

Structure (SMILES): O=C(Cc1ccc(Br)c(F)c1)N1CCN(c2ccc3nncn3n2)CC1 [Example 10240, 2-(4-bromo-3-fluorophenyl)-1-(4-{[1,2,4]triazolo[4,3-b]pyridazin-6-yl}piperazin-1-yl)ethan-1-one]
- pEC50 [1, 3]: 6.11
- pEC50 [1, 4]: 6.11

Structure (SMILES): O=C(Cc1ccc(F)c(Br)c1)N1CCN(c2ccc3nncn3n2)CC1 [Example 10241, 2-(3-bromo-4-fluorophenyl)-1-(4-{[1,2,4]triazolo[4,3-b]pyridazin-6-yl}piperazin-1-yl)ethan-1-one]
- pEC50 [1, 3]: 6.63
- pEC50 [1, 4]: 6.63

Structure (SMILES): CC(C)(C)OC(=O)NCCCc1ccc(CC(=O)N2CCN(c3ccc4nncn4n3)CC2)cc1 [Example 10242, Tert-butyl N-(3-{4-[2-oxo-2-(4-{[1,2,4]triazolo[4,3-b]pyridazin-6-yl}piperazin-1-yl)ethyl]phenyl}propyl)carbamate]
- pEC50 [1, 3]: < 4.30

Structure (SMILES): O=C(Cc1ccc(Cl)c(Cl)c1)N1CCN(c2ccc3nnc(Cc4ccccc4)n3n2)CC1 [Example 10249, 1-(4-{3-benzyl-[1,2,4]triazolo[4,3-b]pyridazin-6-yl}piperazin-1-yl)-2-(3,4-dichlorophenyl)ethan-1-one]
- pEC50 [1, 3]: 4.80

Structure (SMILES): O=C(Cc1ccc(Cl)c(Cl)c1)N1CCN(c2ccc3nnc(-c4ccnc(C(F)(F)F)c4)n3n2)CC1 [Example 10262, 2-(3,4-dichlorophenyl)-1-(4-{3-[2-(trifluoromethyl)pyridin-4-yl]-[1,2,4]triazolo[4,3-b]pyridazin-6-yl}piperazin-1-yl)ethan-1-one]
- pEC50 [1, 3]: 5.21

Structure (SMILES): O=C(Cc1ccc2c(c1)OCO2)N1CCN(c2ccc3nncn3n2)CC1 [Example 10422, 2-(2H-1,3-benzodioxol-5-yl)-1-(4-{[1,2,4]triazolo[4,3-b]pyridazin-6-yl}piperazin-1-yl)ethan-1-one]
- pEC50 [1, 3]: 4.98

Structure (SMILES): O=C(Cc1ccc(S(F)(F)(F)(F)F)cc1)N1CCN(c2ccc3nncn3n2)CC1 [Example 10441, 2-[4-(pentafluoro-λ^6-sulfanyl)phenyl]-1-(4-{[1,2,4]triazolo[4,3-b]pyridazin-6-yl}piperazin-1-yl)ethan-1-one]
- pEC50 [1, 3]: 4.94

Structure (SMILES): O=C(Cc1cccc(S(F)(F)(F)(F)F)c1)N1CCN(c2ccc3nncn3n2)CC1 [Example 10442, 2-[3-(pentafluoro-λ^6-sulfanyl)phenyl]-1-(4-{[1,2,4]triazolo[4,3-b]pyridazin-6-yl}piperazin-1-yl)ethan-1-one]
- pEC50 [1, 3]: 5.95

Structure (SMILES): O=C(Cc1cc(Cl)cc(C(F)(F)F)c1)N1CCN(c2ccc3nncn3n2)CC1 [Example 10479, 2-[3-chloro-5-(trifluoromethyl)phenyl] -1-(4-{[1,2,4]triazolo[4,3-b]pyridazin-6-yl}piperazin-1-yl)ethan-1-one]
- pEC50 [1, 3]: 6.39
- pEC50 [1, 4]: 6.39

Structure (SMILES): O=C(Cc1ccc(C(F)(F)F)c(F)c1)N1CCN(c2ccc3nncn3n2)CC1 [Example 10480, 2-[3-fluoro-4-(trifluoromethyl)phenyl] -1-(4-{[1,2,4]triazolo[4,3-b]pyridazin-6-yl}piperazin-1-yl)ethan-1-one]
- pEC50 [1, 3]: 5.70

Structure (SMILES): O=C(Cc1ccc(Cl)c(C(F)(F)F)c1)N1CCN(c2ccc3nncn3n2)CC1 [Example 10481, 2-[4-chloro-3-(trifluoromethyl)phenyl] -1-(4-{[1,2,4]triazolo[4,3-b]pyridazin-6-yl}piperazin-1-yl)ethan-1-one]
- pEC50 [1, 3]: 6.57
- pEC50 [1, 4]: 6.57

Structure (SMILES): O=C(Cc1ccc(F)c(C(F)(F)F)c1)N1CCN(c2ccc3nncn3n2)CC1 [Example 10482, 2-[4-fluoro-3-(trifluoromethyl)phenyl] -1-(4-{[1,2,4]triazolo[4,3-b]pyridazin-6-yl}piperazin-1-yl)ethan-1-one]
- pEC50 [1, 3]: 7.16
- pEC50 [1, 4]: 7.16

Structure (SMILES): O=C(Cc1cc(F)cc(Cl)c1)N1CCN(c2ccc3nncn3n2)CC1 [Example 10483, 2-(3-chloro-5-fluorophenyl)-1-(4-{[1,2,4]triazolo[4,3-b]pyridazin-6-yl}piperazin-1-yl)ethan-1-one]
- pEC50 [1, 3]: 6.06
- pEC50 [1, 4]: 6.06

Structure (SMILES): O=C(Cc1ccc(C(F)(F)F)cc1)N1CCN(c2ccc3nncn3n2)CC1 [Example 10484, 1-(4-{[1,2,4]triazolo[4,3-b]pyridazin-6-yl}piperazin-1-yl)-2-[4-(trifluoromethyl)phenyl] ethan-1-one]
- pEC50 [1, 3]: 5.26

Structure (SMILES): O=C(Cc1cc(F)cc(F)c1)N1CCN(c2ccc3nncn3n2)CC1 [Example 10485, 2-(3,5-difluorophenyl)-1-(4-{[1,2,4]triazolo[4,3-b]pyridazin-6-yl}piperazin-1-yl)ethan-1-one]
- pEC50 [1, 3]: 5.25

Structure (SMILES): CC(=O)Oc1ccccc1C(=O)Nc1ncc([N+](=O)[O-])s1 [Nitazoxanide]
- efficacy in cryptosporidiosis ([2]; AIDS patients): no more effective than placebo
- efficacy in cryptosporidiosis ([2]; children): partial efficacy

Structure (SMILES): O=C(Cc1cc(C(F)(F)F)cc(C(F)(F)F)c1)N1CCN(c2ccc3nncn3n2)CC1 [SLU-0010495, 2-[3,5-bis(trifluoromethyl)phenyl]-1-(4-{[1,2,4]triazolo[4,3-b]pyridazin-6-yl}piperazin-1-yl)ethan-1-one]
- pEC50 [1, 4]: 6.50
